Results as given in the supplement of paper PMC4977894.
± gives the standard deviation of the averaged measurements.

How the values were obtained:
[1] = system: Homo sapiens (human subject panel, olfactory perception); assay: perceived odor intensity rating (rating 0-100); higher = stronger perceived smell
Protocol: (§1)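 Human olfactory psychophysics. 55 healthy subjects (after excluding 6 low performers) sniffed 1 mL of each odorant diluted in paraffin oil (vials, two dilutions per molecule, 20 molecules presented twice). Each subject rated intensity, pleasantness and familiarity on a 0-100 slider, starting at 50 and required to move. Ratings were given only when the subject reported detecting a smell; per-subject ratings are averaged over subjects.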

[2] = system: Homo sapiens (human subject panel, olfactory perception); assay: perceived odor pleasantness rating (rating 0-100); higher = more pleasant
Protocol: as §1

[3] = system: Homo sapiens (human subject panel, olfactory perception); assay: perceived odor familiarity rating (rating 0-100); higher = more familiar
Protocol: as §1

[4] = odor dilution in paraffin oil: 1/100,000
[5] = odor dilution in paraffin oil: 1/10,000,000
[6] = odor dilution in paraffin oil: 1/1,000
[7] = odor dilution in paraffin oil: 1/10

SMILES | perceived odor intensity rating [1, 4] | perceived odor intensity rating [1, 5] | perceived odor pleasantness rating [2, 4] | perceived odor pleasantness rating [2, 5] | perceived odor familiarity rating [3, 4] | perceived odor familiarity rating [3, 5] | perceived odor intensity rating [1, 6] | perceived odor pleasantness rating [2, 6] | perceived odor familiarity rating [3, 6] | perceived odor intensity rating [1, 7] | perceived odor pleasantness rating [2, 7] | perceived odor familiarity rating [3, 7]
Cc1ccnc2ccccc12 [4-Methylquinoline] | 38.7 ± 30 | 20.8 ± 22 | 40.5 ± 21 | 49.5 ± 24 | 33.1 ± 30 | 34.8 ± 28 |  |  |  |  |  | 
Cc1cscn1 [4-Methylthiazole] | 57.3 ± 28 |  | 32.7 ± 20 |  | 44.4 ± 29 |  | 60.7 ± 30 | 29.4 ± 27 | 46.8 ± 31 |  |  | 
CC(C)CCC(=O)O [4-Methylvaleric acid] | 58.6 ± 30 | 30.9 ± 30 | 20.8 ± 22 | 43.3 ± 20 | 41.8 ± 30 | 32.5 ± 25 |  |  |  |  |  | 
CC1=CC(=O)CC(C)(C)C1=O [4-Oxoisophorone] | 34 ± 28 |  | 55 ± 21 |  | 44.2 ± 28 |  | 49.2 ± 26 | 47.7 ± 25 | 49.7 ± 28 |  |  | 
C=CCCC(=O)O [4-Pentenoic acid] | 65 ± 29 |  | 15.7 ± 18 |  | 44.9 ± 32 |  | 80.5 ± 22 | 14.1 ± 18 | 48.1 ± 34 |  |  | 
C=CCc1ccc(OC)c(OC)c1 [4-allyl-1,2-dimethoxy benzene] | 17.2 ± 21 |  | 55.3 ± 24 |  | 39.8 ± 29 |  | 37.5 ± 29 | 54.4 ± 25 | 45.6 ± 30 |  |  | 
COc1cc(C(=O)O)ccc1O [4-hydroxy-3-methoxybenzoic acid] |  |  |  |  |  |  | 28.8 ± 29 | 44.1 ± 23 | 45.4 ± 24 | 65.3 ± 26 | 54.7 ± 28 | 51.9 ± 29
CCCc1ccc(O)cc1 [4-propylphenol] | 38.2 ± 30 |  | 47.7 ± 21 |  | 43.6 ± 27 |  | 67.3 ± 24 | 36.7 ± 24 | 39 ± 33 |  |  | 
c1cnc2c(n1)CCCC2 [5,6,7,8-Tetrahydroquinoxaline] | 68.2 ± 24 | 40.3 ± 31 | 55.6 ± 25 | 42.9 ± 27 | 65.5 ± 28 | 44.4 ± 26 |  |  |  |  |  | 
CCC1OC(=O)C(O)=C1C (stereo unspecified) [5-Ethyl-3-hydroxy-4-methyl-2(5H)-furanone (replicate)] | 44.9 ± 30 | 58.9 ± 32 | 65.2 ± 22 | 67.5 ± 26 | 54.2 ± 32 | 64.6 ± 32 |  |  |  |  |  | 
CCC1OC(=O)C(O)=C1C (stereo unspecified) [5-Ethyl-3-hydroxy-4-methyl-2(5H)-furanone] | 36.6 ± 31 | 48.1 ± 32 | 54.4 ± 22 | 64 ± 22 | 44.9 ± 29 | 59.7 ± 34 |  |  |  |  |  | 
C=CCCCCO [5-Hexen-1-ol] | 26 ± 25 |  | 49.2 ± 23 |  | 42.6 ± 30 |  | 62.2 ± 32 | 48 ± 28 | 43.7 ± 33 |  |  | 
C/C=C/C(=O)[C@H](C)CC [5-Methyl-2-hepten-4-one] | 69.2 ± 27 | 26 ± 28 | 45.3 ± 28 | 64.7 ± 25 | 45.1 ± 31 | 40.8 ± 31 |  |  |  |  |  | 
Cc1ccc(C=O)o1 [5-Methylfurfural] | 17.9 ± 24 |  | 45.8 ± 23 |  | 36 ± 29 |  | 59 ± 31 | 59.3 ± 24 | 52.6 ± 31 |  |  | 
Cc1cccc2nccnc12 [5-Methylquinoxaline] | 49 ± 31 | 19.4 ± 29 | 45.7 ± 27 | 48.6 ± 30 | 51.8 ± 31 | 23.7 ± 32 |  |  |  |  |  | 
OCCCCCc1ccccc1 [5-Phenyl-1-pentanol] | 17.2 ± 22 |  | 56.8 ± 23 |  | 34.5 ± 32 |  | 53.4 ± 30 | 53.6 ± 22 | 49.2 ± 29 |  |  | 
CC(=O)CC/C=C(\C)CCC=C(C)C [6,10-Dimethyl-5,9-undecadien-2-one] | 13 ± 12 |  | 53 ± 21 |  | 40.3 ± 30 |  | 42.1 ± 30 | 41.8 ± 23 | 43.6 ± 26 |  |  | 
CC(=O)c1cc2c(cc1C)C(C)(C)C(C)CC2(C)C (stereo unspecified) [6-Acetyl-1,1,2,4,4,7-Hexamethyltetralin] |  |  |  |  |  |  | 29.8 ± 28 | 67.7 ± 21 | 49.1 ± 31 | 51.7 ± 28 | 67.4 ± 24 | 57.3 ± 30
CC(=O)CCC=C(C)C [6-Methyl-5-hepten-2-one] | 22.4 ± 25 |  | 52.6 ± 23 |  | 31.9 ± 29 |  | 70.7 ± 23 | 48.6 ± 30 | 51.9 ± 31 |  |  | 
Cc1ccc2oc(=O)ccc2c1 [6-Methylcoumarin] |  |  |  |  |  |  | 62.9 ± 27 | 53.9 ± 28 | 55.2 ± 30 | 80.1 ± 19 | 40.8 ± 32 | 48.9 ± 32
CCCCCC(=O)CCCCC [6-Undecanone] | 8.22 ± 16 |  | 52.7 ± 29 |  | 32.9 ± 32 |  | 43.3 ± 30 | 49.5 ± 27 | 43.3 ± 31 |  |  | 
Cc1ccc2ncccc2c1 [6-methyl quinoline] | 50.9 ± 30 |  | 60.4 ± 23 |  | 44.3 ± 31 |  | 68.2 ± 27 | 36.7 ± 27 | 44 ± 30 |  |  | 
COc1ccc2ccc(=O)oc2c1 [7-Methoxycoumarin] |  |  |  |  |  |  | 42.3 ± 24 | 59.3 ± 25 | 47.2 ± 29 | 62 ± 26 | 62 ± 25 | 52 ± 30
CC1(C)C2CC=C(C=O)C1C2 [(1R)-(-)-Myrtenal] | 62.4 ± 26 | 33.8 ± 31 | 40.3 ± 25 | 50.1 ± 24 | 48.3 ± 31 | 40.7 ± 33 |  |  |  |  |  | 
CC1CC[C@H](C(C)C)[C@@H](O)C1 (stereo partly specified) [( + )-menthol] |  |  |  |  |  |  | 51 ± 31 | 52 ± 24 | 51.8 ± 29 | 83.4 ± 14 | 55.3 ± 28 | 73.7 ± 26
C=C(C)[C@@H]1CC[C@@H](C)C[C@H]1O [(-)-Isopulegol] |  |  |  |  |  |  | 24.4 ± 27 | 45.1 ± 24 | 37.8 ± 32 | 81.1 ± 17 | 56.9 ± 27 | 73.2 ± 29
